In ChEMBL document CHEMBL3046059, “Syntheses and biological activities of octahydro-1H-cyclopenta[d]pyrimidine derivatives” (2007):

system: Aphis craccivora; experiment: Insecticidal activity against Aphis craccivora (cowpea aphid) assessed as mortality at 450 ug/mL measured after 1 day; type: functional; details: 24 h

Compound	mortality at 450 µg/mL
CC(C)N1CC([N+](=O)[O-])=C2N(CC3CCCC3N2Cc2ccc(Cl)nc2)C1 (stereo not given)	88%

system: Aphis craccivora; experiment: Insecticidal activity against Aphis craccivora (cowpea aphid) assessed as mortality at 15.625 ug/mL measured after 1 day; type: functional; details: 24 h

Compound	mortality at 15.625 µg/mL
O=[N+]([O-])/C=C1\NCCN1Cc1ccc(Cl)nc1	60%

system: Aphis craccivora; experiment: Insecticidal activity against Aphis craccivora (cowpea aphid) assessed as mortality at 500 ug/mL measured after 1 day; type: functional; details: 24 h

Compound	mortality at 500 µg/mL
CN1CC([N+](=O)[O-])=C2N(CC3CCCC3N2Cc2ccc(Cl)nc2)C1 (stereo not given)	54%
O=[N+]([O-])/C=C1\NCC2CCCC2N1Cc1ccc(Cl)nc1 (stereo not given)	83%
O=[N+]([O-])/C=C1\NC2CCCC2CN1Cc1ccc(Cl)nc1 (stereo not given)	< 59%
O=[N+]([O-])/C=C1\NCC2CCCC2N1Cc1cccnc1 (stereo not given)	82%
N#C/N=C1\NCC2CCCC2N1Cc1ccc(Cl)nc1 (stereo not given)	38%
CC1CCC2CN/C(=C\[N+](=O)[O-])N(Cc3ccc(Cl)nc3)C12 (stereo not given)	51%
CCN1CC([N+](=O)[O-])=C2N(CC3CCCC3N2Cc2ccc(Cl)nc2)C1 (stereo not given)	90%
CCCN1CC([N+](=O)[O-])=C2N(CC3CCCC3N2Cc2ccc(Cl)nc2)C1 (stereo not given)	61%
CCCCN1CC([N+](=O)[O-])=C2N(CC3CCCC3N2Cc2ccc(Cl)nc2)C1 (stereo not given)	32%
O=[N+]([O-])C1=C2N(CC3CCCC3N2Cc2ccc(Cl)nc2)CN(CCO)C1 (stereo not given)	60%
CS/C(=N\C#N)NCC1CCCC1NCc1ccc(Cl)nc1 (stereo not given)	34%

system: Aphis craccivora; experiment: Insecticidal activity against Aphis craccivora (cowpea aphid) assessed as mortality at 125 ug/mL measured after 1 day; type: functional; details: 24 h

Compound	mortality at 125 µg/mL
CC(C)N1CC([N+](=O)[O-])=C2N(CC3CCCC3N2Cc2ccc(Cl)nc2)C1 (stereo not given)	56%

system: Aphis craccivora; experiment: Insecticidal activity against Aphis craccivora (cowpea aphid) assessed as mortality at 62.5 ug/mL measured after 1 day; type: functional; details: 24 h

Compound	mortality at 62.5 µg/mL
O=[N+]([O-])/C=C1\NCCN1Cc1ccc(Cl)nc1	94%
